From patent publication US20260125382A1, “COMPOUNDS FOR INHIBITING OR DEGRADING CDK2 AND/OR CDK9 AND MEDICINAL USE THEREOF” (KOREA RESEARCH INSTITUTE OF CHEMICAL TECHNOLOGY, priority 2022, published 2026) come the findings set out here.

The target in one experiment is T1, CDK2 (Homo sapiens, UniProt P24941).
T1 construct: endogenous in cells; host or cells: MDA-MB-231
Briefly: CDK protein degradation activity (Western blotting), CDK2. Type of experiment: cell-based. The conditions noted are these: MDA-MB-231 cells, 16 hours, Western blot. In short, it runs like this:
(§1)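 MDA-MB-231 cells were treated with compound at final concentrations of 100 nM, 1 μM and 10 μM, or DMSO vehicle, for 16 h. Lysates were resolved by SDS-PAGE and immunoblotted for CDK2, CDK9 and tubulin, with band intensities quantified densitometrically.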
A general note: A western blot detects proteins with antibodies after separation by electrophoresis.

A further experiment addresses T2, CDK9 (Homo sapiens, UniProt P50750).
T2 construct: endogenous in cells; host or cells: MDA-MB-231
The experiment is described as follows: CDK protein degradation activity (Western blotting), CDK9. In kind it is cell-based. The conditions noted are these: MDA-MB-231 cells, 16 hours, Western blot. The method, boiled down: as §1

T2 sequence (P50750 whole entry): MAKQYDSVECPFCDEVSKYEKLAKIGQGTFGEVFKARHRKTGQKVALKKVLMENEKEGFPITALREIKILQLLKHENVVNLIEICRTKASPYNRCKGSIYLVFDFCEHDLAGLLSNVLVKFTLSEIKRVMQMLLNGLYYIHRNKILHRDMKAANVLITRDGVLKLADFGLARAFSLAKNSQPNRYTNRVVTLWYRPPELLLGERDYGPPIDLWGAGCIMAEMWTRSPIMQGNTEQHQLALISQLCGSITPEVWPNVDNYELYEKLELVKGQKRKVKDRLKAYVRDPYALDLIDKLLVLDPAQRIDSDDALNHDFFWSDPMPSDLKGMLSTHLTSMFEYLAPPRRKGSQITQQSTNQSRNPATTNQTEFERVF

Turning to `O=C1CC[C@H](N2C(=O)c3cc(F)c(N4CCN(CC5CCN(c6ccc(Nc7ncnc8c7ncn8C7CC(NC(=O)c8c(Cl)cccc8Cl)C7)cc6)CC5)CC4)cc3C2=O)C(=O)N1` (stereo partly drawn) [Compound 301, 2,6-dichloro-N-((1s,3s)-3-(6-((4-(4-((4-(2-(2,6-dioxopiperidin-3-yl)-6-fluoro-1,3-dioxoisoindolin-5-yl)piperazin-1-yl)methyl)piperidin-1-yl)phenyl)amino)-9H-purin-9-yl)cyclobutyl)benzamide], at CDK2, the “Enzyme degradation CDK2 (% remaining) @ 0.1 μM” value is recorded as 30%, the “Enzyme degradation CDK2 (% remaining) @ 1 μM” value was found to be 20% and the “Enzyme degradation CDK2 (% remaining) @ 10 μM” value came out at 10%. Further, on CDK9, the “Enzyme degradation CDK9 (% remaining) @ 0.1 μM” value amounted to 70%, the “Enzyme degradation CDK9 (% remaining) @ 1 μM” value is recorded as 0% and the “Enzyme degradation CDK9 (% remaining) @ 10 μM” value is listed as 0%.
Consider `O=C1CC[C@H](N2C(=O)c3cc(F)c(N4CCC(C(=O)N5CCN(CC6CCN(c7ccc(Nc8ncnc9c8ncn9[C@H]8C[C@@H](NC(=O)c9c(Cl)cccc9Cl)C8)cc7)CC6)CC5)CC4)cc3C2=O)C(=O)N1` [Compound 475, 2,6-dichloro-N-((1s,3s)-3-(6-((4-(4-((4-(1-(2-(2,6-dioxopiperidin-3-yl)-6-fluoro-1,3-dioxoisoindolin-5-yl)piperidin-4-carbonyl)piperazin-1-yl)methyl)piperidin-1-yl)phenyl)amino)-9H-purin-9-yl)cyclobutyl)benzamide], for which, on CDK2, the “Enzyme degradation CDK2 (% remaining) @ 0.1 μM” value was 20/20/20%, the “Enzyme degradation CDK2 (% remaining) @ 1 μM” value is 20/20/20% and the “Enzyme degradation CDK2 (% remaining) @ 10 μM” value is reported as 20/20/20%. At CDK9, the “Enzyme degradation CDK9 (% remaining) @ 0.1 μM” value was 0/0/0%, the “Enzyme degradation CDK9 (% remaining) @ 1 μM” value is listed as 0/0/0% and the “Enzyme degradation CDK9 (% remaining) @ 10 μM” value is on record as 0/0/0%.
With `Cc1cccc(C(=O)N[C@H]2C[C@@H](n3cnc4c(Nc5ccc(N6CCN(CC7CCN(c8ccc9c(c8)C(=O)N([C@H]8CCC(=O)NC8=O)C9=O)CC7)CC6)cc5)ncnc43)C2)n1` [Compound 88, N-((1s,3s)-3-(6-((4-(4-((1-(2-(2,6-dioxopiperidin-3-yl)-1,3-dioxoisoindolin-5-yl)piperidin-4-yl)methyl)piperazin-1-yl)phenyl)amino)-9H-purin-9-yl)cyclobutyl)-6-methylpicolinamide], on CDK2, the “Enzyme degradation CDK2 (% remaining) @ 0.1 μM” value is reported as 20/20/20%, the “Enzyme degradation CDK2 (% remaining) @ 1 μM” value is on record as 20/20/20% and the “Enzyme degradation CDK2 (% remaining) @ 10 μM” value is recorded as 20/20/20%. At CDK9, the “Enzyme degradation CDK9 (% remaining) @ 0.1 μM” value is listed as 0/0/0%, the “Enzyme degradation CDK9 (% remaining) @ 1 μM” value is 0/0/0% and the “Enzyme degradation CDK9 (% remaining) @ 10 μM” value is on record as 0/0/0%.
`O=C1CC[C@H](N2C(=O)c3cccc(NCC(=O)N4CCN(CC5CCN(c6ccc(Nc7ncnc8c7ncn8[C@H]7C[C@@H](NC(=O)c8c(Cl)cccc8Cl)C7)cc6)CC5)CC4)c3C2=O)C(=O)N1` [Compound 311, 2,6-dichloro-N-((1s,3s)-3-(6-((4-(4-((4-((2-(2,6-dioxopiperidin-3-yl)-1,3-dioxoisoindolin-4-yl)glycyl)piperazin-1-yl)methyl)piperidin-1-yl)phenyl)amino)-9H-purin-9-yl)cyclobutyl)benzamide]: on CDK2, the “Enzyme degradation CDK2 (% remaining) @ 0.1 μM” value was 10%, the “Enzyme degradation CDK2 (% remaining) @ 1 μM” value stood at 20% and the “Enzyme degradation CDK2 (% remaining) @ 10 μM” value worked out at 20%. At CDK9, the “Enzyme degradation CDK9 (% remaining) @ 0.1 μM” value came out at 10%, the “Enzyme degradation CDK9 (% remaining) @ 1 μM” value was 0% and the “Enzyme degradation CDK9 (% remaining) @ 10 μM” value stood at 0%.
`Cc1cccc(C(=O)NC2CC(n3cnc4c(NCc5cccc(N6CCN(CC7CCN(C(=O)CNc8cccc9c8C(=O)N([C@H]8CCC(=O)NC8=O)C9=O)CC7)CC6)c5)ncnc43)C2)n1` (stereo partly drawn) [Compound 134, N-((1s,3s)-3-(6-((3-(4-((1-((2-(2,6-dioxopiperidin-3-yl)-1,3-dioxoisoindolin-4-yl)glycyl)piperidin-4-yl)methyl)piperazin-1-yl)benzyl)amino)-9H-purin-9-yl)cyclobutyl)-6-methylpicolinamide]: on CDK2, the “Enzyme degradation CDK2 (% remaining) @ 0.1 μM” value stood at 60%, the “Enzyme degradation CDK2 (% remaining) @ 1 μM” value came out at 50% and the “Enzyme degradation CDK2 (% remaining) @ 10 μM” value turned out to be 50%. For the same compound, on CDK9, the “Enzyme degradation CDK9 (% remaining) @ 0.1 μM” value was 0/0/0%, the “Enzyme degradation CDK9 (% remaining) @ 1 μM” value is on record as 0/0/0% and the “Enzyme degradation CDK9 (% remaining) @ 10 μM” value is recorded as 0/0/0%.
Turning to `O=C1CC[C@H](N2C(=O)C=C(Nc3cccc(CC(=O)N4CCC5(CC4)CC(N4CCN(c6ccc(Nc7ncnc8c7ncn8[C@H]7C[C@@H](NC(=O)Cc8ccccc8)C7)cc6)CC4)C5)c3)C2=O)C(=O)N1` [Compound 192, N-((1s,3s)-3-(6-((4-(4-(7-(2-(3-((1-(2,6-dioxopiperidin-3-yl)-2,5-dioxo-2,5-dihydro-1H-pyrrol-3-yl)amino)phenyl)acetyl)-7-azaspiro[3.5]nonan-2-yl)piperazin-1-yl)phenyl)amino)-9H-purin-9-yl)cyclobutyl)-2-phenylacetamide], on CDK2, the “Enzyme degradation CDK2 (% remaining) @ 0.1 μM” value is listed as 70%, the “Enzyme degradation CDK2 (% remaining) @ 1 μM” value was 70% and the “Enzyme degradation CDK2 (% remaining) @ 10 μM” value turned out to be 50%. In addition, on CDK9, the “Enzyme degradation CDK9 (% remaining) @ 0.1 μM” value is 20%, the “Enzyme degradation CDK9 (% remaining) @ 1 μM” value is 20% and the “Enzyme degradation CDK9 (% remaining) @ 10 μM” value was found to be 10%.
Regarding `Cc1cccc(C(=O)N[C@H]2C[C@@H](n3cnc4c(Nc5ccc(N6CCN(C7CC8(CCN(c9cc%10c(cc9F)C(=O)N([C@H]9CCC(=O)NC9=O)C%10=O)CC8)C7)CC6)cc5)ncnc43)C2)n1` [Compound 385, N-((1s,3s)-3-(6-((4-(4-(7-(2-(2,6-dioxopiperidin-3-yl)-6-fluoro-1,3-dioxoisoindolin-5-yl)-7-azaspiro[3.5]nonan-2-yl)piperazin-1-yl)phenyl)amino)-9H-purin-9-yl)cyclobutyl)-6-methylpicolinamide], on CDK2, the “Enzyme degradation CDK2 (% remaining) @ 0.1 μM” value is reported as 40%, the “Enzyme degradation CDK2 (% remaining) @ 1 μM” value is listed as 30% and the “Enzyme degradation CDK2 (% remaining) @ 10 μM” value is 30%. Also, on CDK9, the “Enzyme degradation CDK9 (% remaining) @ 0.1 μM” value is given as 0/0/0%, the “Enzyme degradation CDK9 (% remaining) @ 1 μM” value is reported as 0/0/0% and the “Enzyme degradation CDK9 (% remaining) @ 10 μM” value was 0/0/0%.
On to `O=C1CC[C@H](N2C(=O)c3cccc(OCC(=O)N4CCC(CN5CCN(c6ccc(Nc7ncnc8c7ncn8[C@H]7C[C@@H](NC(=O)c8c(Cl)cccc8Cl)C7)cc6)CC5)CC4)c3C2=O)C(=O)N1` [Compound 163, 2,6-dichloro-N-((1s,3s)-3-(6-((4-(4-((1-(2-((2-(2,6-dioxopiperidin-3-yl)-1,3-dioxoisoindolin-4-yl)oxy)acetyl)piperidin-4-yl)methyl)piperazin-1-yl)phenyl)amino)-9H-purin-9-yl)cyclobutyl)benzamide], for which, on CDK2, the “Enzyme degradation CDK2 (% remaining) @ 0.1 μM” value turned out to be 20%, the “Enzyme degradation CDK2 (% remaining) @ 1 μM” value was determined as 10% and the “Enzyme degradation CDK2 (% remaining) @ 10 μM” value is reported as 10%. Besides, at CDK9, the “Enzyme degradation CDK9 (% remaining) @ 0.1 μM” value is on record as 0/0/0%, the “Enzyme degradation CDK9 (% remaining) @ 1 μM” value is given as 0/0/0% and the “Enzyme degradation CDK9 (% remaining) @ 10 μM” value is recorded as 0/0/0%.
On to “N-((1s,3s)-3-(6-((4-(4-(2-(1-(1-(2-(2,6-dioxopiperidin-3-yl)-1,3-dioxoisoindolin-5-yl)piperidin-4-carbonyl)piperidin-4-yl)ethyl)piperazin-1-yl)phenyl)amino)-9H-purin-9-yl)cyclobutyl)-2-phenylacetamide [Compound 404]”, for which, at CDK2, the “Enzyme degradation CDK2 (% remaining) @ 0.1 μM” value was 50/50/50%, the “Enzyme degradation CDK2 (% remaining) @ 1 μM” value is 50/50/50% and the “Enzyme degradation CDK2 (% remaining) @ 10 μM” value was 50/50/50%. In addition, at CDK9, the “Enzyme degradation CDK9 (% remaining) @ 0.1 μM” value is given as 0/0/0%, the “Enzyme degradation CDK9 (% remaining) @ 1 μM” value is given as 0/0/0% and the “Enzyme degradation CDK9 (% remaining) @ 10 μM” value is 0/0/0%.
Consider `Cc1cccc(C(=O)N[C@H]2C[C@@H](n3cnc4c(NCc5cccc(N6CCN(C(=O)CNc7ccc8c(c7)C(=O)N([C@H]7CCC(=O)NC7=O)C8=O)CC6)c5)ncnc43)C2)n1` [Compound 131, N-((1s,3s)-3-(6-((3-(4-((2-(2,6-dioxopiperidin-3-yl)-1,3-dioxoisoindolin-5-yl)glycyl)piperazin-1-yl)benzyl)amino)-9H-purin-9-yl)cyclobutyl)-6-methylpicolinamide], for which, at CDK2, the “Enzyme degradation CDK2 (% remaining) @ 0.1 μM” value is recorded as 80%, the “Enzyme degradation CDK2 (% remaining) @ 1 μM” value is given as 100% and the “Enzyme degradation CDK2 (% remaining) @ 10 μM” value was found to be 100%. Further, at CDK9, the “Enzyme degradation CDK9 (% remaining) @ 0.1 μM” value was 60/60/60%, the “Enzyme degradation CDK9 (% remaining) @ 1 μM” value is listed as 60/60/60% and the “Enzyme degradation CDK9 (% remaining) @ 10 μM” value is 60/60/60%.
Take `Cc1cccc(C(=O)N[C@H]2C[C@@H](n3cnc4c(NC5CCN(CCCN6CCN(C(=O)CNc7cccc8c7C(=O)N([C@H]7CCC(=O)NC7=O)C8=O)CC6)CC5)ncnc43)C2)n1` [Compound 38, N-((1s,3s)-3-(6-((1-(3-(4-((2-(2,6-dioxopiperidin-3-yl)-1,3-dioxoisoindolin-4-yl)glycyl)piperazin-1-yl)propyl)piperidin-4-yl)amino)-9H-purin-9-yl)cyclobutyl)-6-methylpicolinamide]: on CDK2, the “Enzyme degradation CDK2 (% remaining) @ 0.1 μM” value turned out to be 40%, the “Enzyme degradation CDK2 (% remaining) @ 1 μM” value is listed as 30% and the “Enzyme degradation CDK2 (% remaining) @ 10 μM” value was determined as 20%. In addition, on CDK9, the “Enzyme degradation CDK9 (% remaining) @ 0.1 μM” value is reported as 0/0/0%, the “Enzyme degradation CDK9 (% remaining) @ 1 μM” value is recorded as 0/0/0% and the “Enzyme degradation CDK9 (% remaining) @ 10 μM” value is listed as 0/0/0%.
